Laboratory results reported in patent US8859796B1, “Synthetic and purification methods for phosphaplatin compounds and uses thereof” (Phosplatin Therapeutics LLC, priority 2012, dated 2014).

Assays:
[1] = Long-term stability study of the recrystallized (R,R)-DACH-2 sample; format: physicochemical; details: not exceeding 25° C., humidity 60±5%
Experimental: A long-term stability study of the recrystallized sample was conducted.

[2] = Stability of saturated aqueous solutions of (R,R)-DACH-2 at pH 2, composition by HPLC; format: physicochemical
Experimental: The resultant suspension was stirred for 30 min and the pH adjusted to 2 with 0.1M nitric acid. The solution was filtered through a 0.45 micron Whatman polypropylene filter to afford a clear solution. Samples of the solution were stored at 25° C. and 5° C. At the time intervals shown in Tables 2 and 3 the solution composition was determined by HPLC.

[3] = after 14 months, initial 0.01% (wt/wt)
[4] = aqueous solution, pH 2, 5° C., 0.1 h
[5] = aqueous solution, pH 2, 5° C., 2 h
[6] = aqueous solution, pH 2, 5° C., 4 h
[7] = aqueous solution, pH 2, 5° C., 8 h
[8] = aqueous solution, pH 2, 5° C., 16 h
[9] = aqueous solution, pH 2, 5° C., 24 h
[10] = aqueous solution, pH 2, 5° C., 48 h
[11] = aqueous solution, pH 2, 25° C., 0.1 h
[12] = aqueous solution, pH 2, 25° C., 2 h
[13] = aqueous solution, pH 2, 25° C., 4 h
[14] = aqueous solution, pH 2, 25° C., 8 h
[15] = aqueous solution, pH 2, 25° C., 16 h
[16] = aqueous solution, pH 2, 25° C., 24 h
[17] = aqueous solution, pH 2, 25° C., 48 h

## NC1CCCCC1N.O=P([O-])([O-])OP(=O)(O)O.[Pt+2] [(R,R)-DACH-2, cyclohexanediamine (pyrophosphato)platinum (II)]
[1]; after 14 months, HDPE bottle, initial 99.4% w/w
  (R,R)-DACH-2 purity on re-testing: 98.4 % (wt/wt)
[1]; [3]
  chloride content on re-testing: 0.01% (wt/wt)
  nitrate content on re-testing: 0.01% (wt/wt)
[1]; after 14 months, initial 0.17% (wt/wt)
  pyrophosphate content on re-testing: 0.17% (wt/wt)
[1]; after 14 months, initial not detected
  DACH-Pt—Cl2 content on re-testing: not detected
[1]; purified solid, 14 months
  Long-term stability, conclusion in words: stable
[2]; [4]
  (R,R)-DACH-2: 12.8 HPLC Area %
  (R,R)-DACH-2 concentration: 0.1 mg/mL
  (R,R)-DACH-2 dimer: 16.8 HPLC Area %
  (R,R-DACH-2 water adduct): 2.5 HPLC Area %
  Pt-DACH-diaquo: 68.3 HPLC Area %
[2]; [5]
  (R,R)-DACH-2: 11.7 HPLC Area %
  (R,R)-DACH-2 concentration: 2 mg/mL
  (R,R)-DACH-2 dimer: 24.2 HPLC Area %
  (R,R-DACH-2 water adduct): 2.22 HPLC Area %
  Pt-DACH-diaquo: 60.9 HPLC Area %
[2]; [6]
  (R,R)-DACH-2: 10.6 HPLC Area %
  (R,R)-DACH-2 concentration: 4 mg/mL
  (R,R)-DACH-2 dimer: 29.2 HPLC Area %
  (R,R-DACH-2 water adduct): 2.02 HPLC Area %
  Pt-DACH-diaquo: 57.2 HPLC Area %
[2]; [7]
  (R,R)-DACH-2: 9.6 HPLC Area %
  (R,R)-DACH-2 concentration: 8 mg/mL
  (R,R)-DACH-2 dimer: 33.5 HPLC Area %
  (R,R-DACH-2 water adduct): 1.81 HPLC Area %
  Pt-DACH-diaquo: 53.6 HPLC Area %
[2]; [8]
  (R,R)-DACH-2: 9.3 HPLC Area %
  (R,R)-DACH-2 concentration: 16 mg/mL
  (R,R)-DACH-2 dimer: 35.1 HPLC Area %
  (R,R-DACH-2 water adduct): 1.63 HPLC Area %
  Pt-DACH-diaquo: 52.5 HPLC Area %
[2]; [9]
  (R,R)-DACH-2: 9.4 HPLC Area %
  (R,R)-DACH-2 concentration: 24 mg/mL
  (R,R)-DACH-2 dimer: 36.2 HPLC Area %
  (R,R-DACH-2 water adduct): 1.43 HPLC Area %
  Pt-DACH-diaquo: 51.5 HPLC Area %
[2]; [10]
  (R,R)-DACH-2: 9.3 HPLC Area %
  (R,R)-DACH-2 concentration: 48 mg/mL
  (R,R)-DACH-2 dimer: 34.7 HPLC Area %
  (R,R-DACH-2 water adduct): 1.27 HPLC Area %
  Pt-DACH-diaquo: 53.8 HPLC Area %
[2]; [11]
  (R,R)-DACH-2: 67.1 HPLC Area %
  (R,R)-DACH-2 concentration: 2.38 mg/mL
  (R,R)-DACH-2 dimer: 2.9 HPLC Area %
  (R,R-DACH-2 water adduct): 13.3 HPLC Area %
  Pt-DACH-diaquo: 16.7 HPLC Area %
[2]; [12]
  (R,R)-DACH-2: 50.6 HPLC Area %
  (R,R)-DACH-2 concentration: 1.75 mg/mL
  (R,R)-DACH-2 dimer: 14.3 HPLC Area %
  (R,R-DACH-2 water adduct): 9.3 HPLC Area %
  Pt-DACH-diaquo: 25.8 HPLC Area %
[2]; [13]
  (R,R)-DACH-2: 48.7 HPLC Area %
  (R,R)-DACH-2 concentration: 1.59 mg/mL
  (R,R)-DACH-2 dimer: 17.4 HPLC Area %
  (R,R-DACH-2 water adduct): 9.2 HPLC Area %
  Pt-DACH-diaquo: 24.8 HPLC Area %
[2]; [14]
  (R,R)-DACH-2: 51.6 HPLC Area %
  (R,R)-DACH-2 concentration: 1.41 mg/mL
  (R,R)-DACH-2 dimer: 13.4 HPLC Area %
  (R,R-DACH-2 water adduct): 9.5 HPLC Area %
  Pt-DACH-diaquo: 25.5 HPLC Area %
[2]; [15]
  (R,R)-DACH-2: 56.5 HPLC Area %
  (R,R)-DACH-2 concentration: 1.04 mg/mL
  (R,R)-DACH-2 dimer: 8.1 HPLC Area %
  (R,R-DACH-2 water adduct): 9.8 HPLC Area %
  Pt-DACH-diaquo: 25.6 HPLC Area %
[2]; [16]
  (R,R)-DACH-2: 57.6 HPLC Area %
  (R,R)-DACH-2 concentration: 0.88 mg/mL
  (R,R)-DACH-2 dimer: 7 HPLC Area %
  (R,R-DACH-2 water adduct): 10.1 HPLC Area %
  Pt-DACH-diaquo: 25.3 HPLC Area %
[2]; [17]
  (R,R)-DACH-2: 59.5 HPLC Area %
  (R,R)-DACH-2 concentration: 0.62 mg/mL
  (R,R)-DACH-2 dimer: 5.5 HPLC Area %
  (R,R-DACH-2 water adduct): 9.3 HPLC Area %
  Pt-DACH-diaquo: 25.9 HPLC Area %
[2]; aqueous solution, pH 2, as temperature is reduced (25° C. to 5° C.)
  Degradation rate, conclusion in words: significantly reduced
[2]; saturated aqueous solution, pH 2
  Stability in aqueous solution, conclusion in words: readily suffers hydrolytic degradation
